Assay results from ChEMBL document CHEMBL1201862, “PubChem BioAssay data set” (2004).
Active and inactive are the calls of the source.

How the values were obtained:
cells [1] = type: functional, cell-based
cells [2] = type: functional, cell-based; remark: listed apart in the source
[3] = molecular target: T1, Endoribonuclease toxin MazF (Escherichia coli K-12, UniProt P0AE70); assay: activation of MazEF endoribonuclease cleavage – biochemical, fluorescence, single-stranded RNA substrate, uHTS hits, dose response (AID 588481); type: functional
T1 sequence (P0AE70 whole entry): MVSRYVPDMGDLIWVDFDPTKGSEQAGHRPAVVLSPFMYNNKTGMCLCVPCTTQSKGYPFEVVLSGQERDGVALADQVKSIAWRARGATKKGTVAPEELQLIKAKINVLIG

[4] = molecular target: T1, Endoribonuclease toxin MazF; assay: substrate-only fluorescence increase artefacts – biochemical, single-stranded RNase substrate, counter-screen for MazEF activator project, dose response (AID 588502); type: functional
[5] = molecular target: DNA dC->dU-editing enzyme APOBEC-3G (Homo sapiens, UniProt Q9HC16); assay: Dose Response confirmation of small molecule APOBEC3G DNA Deaminase Inhibitors via a fluorescence-based single-stranded DNA deaminase assay. [Related pubchem assays (depositor defined):AID493012, AID493028]; type: functional
Sequence of DNA dC->dU-editing enzyme APOBEC-3G (Q9HC16 whole entry): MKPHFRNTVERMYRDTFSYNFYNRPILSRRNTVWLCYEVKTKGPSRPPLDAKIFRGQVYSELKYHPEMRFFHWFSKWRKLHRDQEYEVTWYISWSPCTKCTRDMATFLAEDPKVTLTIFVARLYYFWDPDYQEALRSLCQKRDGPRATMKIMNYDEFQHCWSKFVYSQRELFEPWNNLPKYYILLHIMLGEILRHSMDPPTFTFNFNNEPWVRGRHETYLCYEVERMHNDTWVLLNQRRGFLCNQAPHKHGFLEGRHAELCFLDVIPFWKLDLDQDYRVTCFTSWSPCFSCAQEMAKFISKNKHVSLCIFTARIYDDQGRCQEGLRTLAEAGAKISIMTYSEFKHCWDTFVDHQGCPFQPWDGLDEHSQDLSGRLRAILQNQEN

[6] = molecular target: T2, Rac GTPase-activating protein 1 (Homo sapiens, UniProt Q9H0H5); assay: blockers of MgcRacGAP-driven Rac1 GTP hydrolysis – biochemical, ADP Hunter fluorescence, primary and confirmatory, confirmation (AID 624330); type: functional
T2 sequence (Q9H0H5 whole entry): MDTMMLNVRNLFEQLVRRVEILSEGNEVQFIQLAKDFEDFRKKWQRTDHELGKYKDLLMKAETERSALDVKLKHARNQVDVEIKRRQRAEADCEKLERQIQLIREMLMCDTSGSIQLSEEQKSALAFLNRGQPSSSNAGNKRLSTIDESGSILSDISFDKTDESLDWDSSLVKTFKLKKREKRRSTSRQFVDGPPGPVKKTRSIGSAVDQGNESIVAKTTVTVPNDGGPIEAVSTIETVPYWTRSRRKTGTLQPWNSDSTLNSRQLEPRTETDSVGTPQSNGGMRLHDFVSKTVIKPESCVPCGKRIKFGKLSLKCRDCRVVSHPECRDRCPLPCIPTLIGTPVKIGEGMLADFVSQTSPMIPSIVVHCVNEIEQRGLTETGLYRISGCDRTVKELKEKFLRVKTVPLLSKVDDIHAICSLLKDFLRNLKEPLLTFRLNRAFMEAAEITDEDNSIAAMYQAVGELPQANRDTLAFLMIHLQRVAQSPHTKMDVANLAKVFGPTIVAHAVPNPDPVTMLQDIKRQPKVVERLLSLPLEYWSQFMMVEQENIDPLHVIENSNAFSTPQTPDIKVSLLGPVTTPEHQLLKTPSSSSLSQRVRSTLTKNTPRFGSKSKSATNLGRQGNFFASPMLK

[7] = HEK-293T cell viability reduction – luminescence, B-cell screen hits, cytotoxicity control for BCR NF-kB inhibitor project, dose response (AID 489021); type: functional, cell-based;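 note: HEK-293T cells carrying an NF-kB luciferase reporter; cells exposed to compound for about 14 hours before viability readout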
Large T antigen = Large T antigen (Simian virus 40, UniProt P03070); type: functional, Betapolyomavirus macacae;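 note: Confirmatory-stage PubChem screen for compounds that inhibit SV40 T antigen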
Sequence of Large T antigen (P03070 whole entry): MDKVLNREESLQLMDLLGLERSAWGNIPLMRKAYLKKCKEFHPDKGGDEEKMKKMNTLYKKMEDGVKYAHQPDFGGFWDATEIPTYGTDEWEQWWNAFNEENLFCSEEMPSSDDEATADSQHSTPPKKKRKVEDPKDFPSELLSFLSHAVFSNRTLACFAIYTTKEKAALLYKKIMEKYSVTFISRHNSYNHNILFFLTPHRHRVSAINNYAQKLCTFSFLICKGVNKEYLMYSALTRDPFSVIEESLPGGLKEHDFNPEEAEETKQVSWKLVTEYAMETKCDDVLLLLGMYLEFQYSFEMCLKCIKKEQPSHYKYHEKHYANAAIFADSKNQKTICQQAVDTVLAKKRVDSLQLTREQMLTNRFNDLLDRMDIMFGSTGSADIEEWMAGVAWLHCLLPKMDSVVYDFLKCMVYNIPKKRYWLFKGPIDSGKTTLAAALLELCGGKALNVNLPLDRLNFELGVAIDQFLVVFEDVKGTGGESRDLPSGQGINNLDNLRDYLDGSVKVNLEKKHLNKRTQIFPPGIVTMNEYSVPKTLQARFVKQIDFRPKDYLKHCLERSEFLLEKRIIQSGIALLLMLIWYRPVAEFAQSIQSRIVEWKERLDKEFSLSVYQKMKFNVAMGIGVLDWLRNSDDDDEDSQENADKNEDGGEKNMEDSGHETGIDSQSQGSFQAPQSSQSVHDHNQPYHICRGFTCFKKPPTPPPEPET

[8] = molecular target: T3, Microphthalmia-associated transcription factor (Homo sapiens, UniProt O75030); assay: reducers of TRPM1 reporter luminescence, concentration series – cell-based, SK-MEL-5, cherry-picked, set 3, MITF inhibitor project, dose response (AID 493073); type: functional;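 note: SK-MEL-5 melanoma cells with luciferase driven by the MITF target TRPM1 promoter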
T3 sequence (O75030 whole entry): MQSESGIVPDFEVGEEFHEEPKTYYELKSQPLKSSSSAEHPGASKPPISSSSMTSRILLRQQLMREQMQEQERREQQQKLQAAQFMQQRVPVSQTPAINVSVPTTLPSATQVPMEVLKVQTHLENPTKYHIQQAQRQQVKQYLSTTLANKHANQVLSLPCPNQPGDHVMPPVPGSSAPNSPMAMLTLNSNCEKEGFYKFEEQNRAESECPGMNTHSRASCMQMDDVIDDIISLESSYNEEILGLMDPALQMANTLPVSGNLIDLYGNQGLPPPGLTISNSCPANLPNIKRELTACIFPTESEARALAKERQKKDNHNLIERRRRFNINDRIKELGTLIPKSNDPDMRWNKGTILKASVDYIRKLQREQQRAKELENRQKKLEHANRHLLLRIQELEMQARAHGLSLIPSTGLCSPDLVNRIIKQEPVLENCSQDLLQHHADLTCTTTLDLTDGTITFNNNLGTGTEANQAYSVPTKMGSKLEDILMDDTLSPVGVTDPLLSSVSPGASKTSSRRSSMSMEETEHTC

[9] = molecular target: T4, RNA-binding protein pos-1 (Caenorhabditis elegans, UniProt G5EF15); assay: disruptors of C. elegans POS-1 RNA interaction – biochemical, fluorescence polarization, dose response (AID 1964);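 note: purified POS-1 fused to maltose binding protein made in E. coli; potency of compounds blocking POS-1 binding to fluorescent RNA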
T4 sequence (G5EF15 whole entry): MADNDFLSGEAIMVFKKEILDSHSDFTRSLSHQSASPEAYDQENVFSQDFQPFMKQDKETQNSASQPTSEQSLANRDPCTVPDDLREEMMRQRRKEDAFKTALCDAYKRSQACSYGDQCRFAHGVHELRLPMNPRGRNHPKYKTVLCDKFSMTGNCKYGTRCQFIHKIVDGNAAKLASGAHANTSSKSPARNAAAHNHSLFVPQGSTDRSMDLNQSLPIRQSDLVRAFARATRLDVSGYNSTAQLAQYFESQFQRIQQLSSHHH

[10] = molecular target: T5, Zinc finger protein mex-5 (Caenorhabditis elegans, UniProt Q9XUB2); assay: potency of MEX-5 RNA-binding blockers – biochemical, C. elegans, fluorescence polarization, dose response (AID 1960)
T5 sequence (Q9XUB2 whole entry): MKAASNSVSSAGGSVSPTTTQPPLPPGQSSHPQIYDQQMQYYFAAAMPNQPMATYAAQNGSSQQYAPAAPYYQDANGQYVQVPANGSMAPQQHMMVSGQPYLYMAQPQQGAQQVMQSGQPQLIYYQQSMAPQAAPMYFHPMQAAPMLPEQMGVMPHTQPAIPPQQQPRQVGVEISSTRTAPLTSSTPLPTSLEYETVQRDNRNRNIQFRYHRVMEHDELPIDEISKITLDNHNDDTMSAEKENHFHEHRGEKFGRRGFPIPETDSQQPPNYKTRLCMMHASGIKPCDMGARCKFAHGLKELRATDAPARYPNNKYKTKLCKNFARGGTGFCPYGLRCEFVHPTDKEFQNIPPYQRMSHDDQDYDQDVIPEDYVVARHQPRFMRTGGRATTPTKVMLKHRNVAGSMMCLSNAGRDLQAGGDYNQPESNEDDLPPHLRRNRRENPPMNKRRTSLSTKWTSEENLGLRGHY

[11] = Trypanosoma cruzi growth suppression in host cells – NIH3T3 host cells, beta-gal luminescence, confirmation (AID 2044); type: functional, cell-based;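 note: intracellular parasites grown in NIH/3T3 mouse fibroblasts as host cells; luminescent beta-galactosidase reporter signal from transgenic T. cruzi replicating inside host cells; inhibitors lower the luminescence signal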
[12] = NIH3T3 cell viability loss – ATP luminescence, mouse fibroblasts, counter-screen, dose response (AID 2010); type: functional, cell-based;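 note: cells exposed to compound for about 90 hours before reading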
[13] = molecular target: Luciferin 4-monooxygenase (Photinus pyralis, UniProt P08659); assay: inhibition of purified Photinus pyralis luciferase – biochemical, luminescence, dose response (AID 1891)
Sequence of Luciferin 4-monooxygenase (P08659 whole entry): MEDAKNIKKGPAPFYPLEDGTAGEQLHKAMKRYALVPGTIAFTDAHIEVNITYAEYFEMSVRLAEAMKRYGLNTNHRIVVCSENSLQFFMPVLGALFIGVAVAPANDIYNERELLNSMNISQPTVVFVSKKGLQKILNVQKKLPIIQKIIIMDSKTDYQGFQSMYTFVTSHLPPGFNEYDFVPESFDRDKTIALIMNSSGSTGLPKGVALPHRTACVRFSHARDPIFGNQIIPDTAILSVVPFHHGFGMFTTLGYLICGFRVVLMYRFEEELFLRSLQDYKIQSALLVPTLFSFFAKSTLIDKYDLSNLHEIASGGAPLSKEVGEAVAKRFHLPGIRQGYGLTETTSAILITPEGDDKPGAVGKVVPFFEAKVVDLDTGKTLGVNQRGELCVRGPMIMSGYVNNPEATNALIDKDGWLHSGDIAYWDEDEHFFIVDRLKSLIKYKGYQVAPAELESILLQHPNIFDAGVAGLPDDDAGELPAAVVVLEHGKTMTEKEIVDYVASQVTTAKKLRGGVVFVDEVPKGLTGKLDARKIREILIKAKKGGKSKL

[14] = Luminescence Cell-Based Dose Confirmation HTS to Identify Inhibitors of Platelet Dense Granule Release. [Related pubchem assays: 1663 (Primary HTS), 1678 (Summary of Project)]; type: functional
[15] = viability of uninfected HEp-2 cells – cell-based, HTS, cytotoxicity control for RSV inhibitor project, dose response (AID 2410); type: functional; details: human respiratory syncytial virus
[16] = molecular target: FAD-linked sulfhydryl oxidase ALR (Homo sapiens, UniProt P55789); assay: ALR-catalysed DTT oxidation blockers – biochemical, H2O2 detection, luminescence, cherry-pick, dose response (AID 493248)
Sequence of FAD-linked sulfhydryl oxidase ALR (P55789 whole entry): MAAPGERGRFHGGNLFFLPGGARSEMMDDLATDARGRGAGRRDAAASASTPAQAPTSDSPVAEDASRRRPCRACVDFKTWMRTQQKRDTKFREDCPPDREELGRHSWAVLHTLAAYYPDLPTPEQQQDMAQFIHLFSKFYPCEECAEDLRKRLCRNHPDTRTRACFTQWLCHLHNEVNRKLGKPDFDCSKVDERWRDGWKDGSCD

[17] = molecular target: Glyceraldehyde-3-phosphate dehydrogenase (Homo sapiens, UniProt P04406)
Sequence of Glyceraldehyde-3-phosphate dehydrogenase (P04406 whole entry): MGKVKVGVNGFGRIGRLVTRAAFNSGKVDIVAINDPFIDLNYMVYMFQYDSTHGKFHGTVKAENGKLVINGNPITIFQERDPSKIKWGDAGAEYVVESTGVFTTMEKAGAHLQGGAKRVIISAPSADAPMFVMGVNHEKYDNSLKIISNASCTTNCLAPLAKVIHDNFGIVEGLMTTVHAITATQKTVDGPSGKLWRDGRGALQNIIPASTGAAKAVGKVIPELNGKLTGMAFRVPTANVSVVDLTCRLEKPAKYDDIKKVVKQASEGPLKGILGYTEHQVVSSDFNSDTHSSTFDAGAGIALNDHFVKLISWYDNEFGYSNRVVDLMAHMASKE

cells [18] = type: functional
Genome polyprotein = Genome polyprotein (dengue virus type 2, UniProt P29990); assay: flavivirus cap methylation enzyme inhibition – biochemical, confirmation dose response, primary screen (AID 588689); type: functional
Sequence of Genome polyprotein (P29990 2492-3391 limits assumed): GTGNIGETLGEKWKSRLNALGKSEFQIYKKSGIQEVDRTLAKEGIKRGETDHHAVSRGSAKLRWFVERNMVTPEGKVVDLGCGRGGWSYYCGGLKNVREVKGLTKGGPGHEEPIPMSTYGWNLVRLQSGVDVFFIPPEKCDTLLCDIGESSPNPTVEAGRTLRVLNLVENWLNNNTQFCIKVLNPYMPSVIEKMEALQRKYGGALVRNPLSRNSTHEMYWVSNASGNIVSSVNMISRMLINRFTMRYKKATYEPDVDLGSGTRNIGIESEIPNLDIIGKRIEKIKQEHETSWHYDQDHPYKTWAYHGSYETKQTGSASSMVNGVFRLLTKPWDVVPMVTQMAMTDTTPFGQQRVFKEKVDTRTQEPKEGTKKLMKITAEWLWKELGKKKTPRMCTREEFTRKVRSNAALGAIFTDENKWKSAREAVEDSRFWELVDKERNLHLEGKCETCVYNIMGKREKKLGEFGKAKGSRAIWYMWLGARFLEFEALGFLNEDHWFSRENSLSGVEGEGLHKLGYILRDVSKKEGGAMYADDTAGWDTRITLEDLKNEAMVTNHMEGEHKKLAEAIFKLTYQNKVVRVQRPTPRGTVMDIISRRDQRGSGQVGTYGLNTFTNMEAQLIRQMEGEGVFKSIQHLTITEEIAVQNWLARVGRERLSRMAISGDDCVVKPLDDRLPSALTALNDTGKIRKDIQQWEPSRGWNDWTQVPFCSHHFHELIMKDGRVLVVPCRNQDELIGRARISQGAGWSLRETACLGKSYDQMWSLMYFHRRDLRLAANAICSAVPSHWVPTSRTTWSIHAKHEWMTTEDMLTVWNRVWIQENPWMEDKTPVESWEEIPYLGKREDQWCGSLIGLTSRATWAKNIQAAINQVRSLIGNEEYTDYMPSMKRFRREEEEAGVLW

## CCC1CCc2sc(C(=O)O)cc2C1 (centres undefined)
Cells [1]
  EC50: > 350 µM (not active)
Cells [2]
  EC50: > 350 µM (not active)

## O=C(Nc1ccccc1)c1ccc(NCCc2ccccc2)c([N+](=O)[O-])c1
[3]
  EC50: > 99 µM (inactive)
[4]
  EC50: 84.3 µM (inactive)

## CCOC(=O)/C(C#N)=N\Nc1cc(Cl)ccc1OC
[3]
  EC50: > 99 µM (inactive)
[4]
  EC50: 44.1 µM (inactive)

## COc1ccc2c(C)cc3n[nH]c(=S)n3c2c1
[5]
  IC50: > 100 µM (inactive)
[6]
  IC50: 20.6 µM (active)

## COCCCNC(=O)COc1ccc(-c2nccc(-c3ccccn3)n2)cc1
[7]
  IC50: > 80 µM (inactive)

## NS(=O)(=O)c1ccc(N/N=C/c2ccc[nH]2)c([N+](=O)[O-])c1
Large T antigen
  IC50: 65.5 µM (active)

## Nc1ccccc1SSc1ccccc1N
[5]
  IC50: 25.8 µM (active)
[6]
  IC50: 86.1 µM (active)

## Nc1nnc(S)n1-c1ccc(Cl)cc1
[5]
  IC50: 23.7 µM (active)

## O=C1NC(=O)N(Cc2ccccc2Cl)C(=O)/C1=C/c1cccs1
[8]
  AC50: 29.7 µM (active)

## CC1=CC2=C(C=O)C(=O)C(C)(O)C(O)C2=CO1 (centres undefined)
[3]
  EC50: > 99 µM (inactive)
[4]
  EC50: > 99 µM (inactive)

## Cc1cc(O)nc2c(C)cc(S(=O)(=O)N3CCCCC3)cc12
[7]
  IC50: > 80 µM (inactive)

## CC1(C)O[C@@H]2[C@H](O1)[C@@H](COS(=O)(=O)O)O[C@H]2n1c(S)nc2c(O)nc(N)nc21
[5]
  IC50: 34.8 µM (active)
[6]
  IC50: 53.7 µM (active)

## CCOC(=O)Cc1nn(CC)c(=O)c2ccccc12
Cells [1]
  EC50: > 350 µM (not active)
Cells [2]
  EC50: > 350 µM (not active)

## C=C(C)CNC(=O)c1ccc2nc(Cc3ccc(OC)cc3)oc2c1
Cells [1]
  EC50: > 350 µM (not active)
Cells [2]
  EC50: 15.1 µM (active)

## O=C(CCCCl)NC1=NN(c2ccccc2)C(=O)C1
Large T antigen
  IC50: 30.9 µM (active)

## Cc1cc2ccccn2c1C(=O)c1ccc(NN)c([N+](=O)[O-])c1
[7]
  IC50: > 80 µM (inactive)

## CCn1c(CN2CCN(c3ccc(Cl)cc3)CC2)nc2ccccc21
[7]
  IC50: > 80 µM (inactive)

## COCCN1C(=O)/C(=C/c2c(OC)cc(OC)cc2OC)C(=O)N(c2ccccc2)C1=O
[9]
  EC50: 131 µM (active)
[10]
  EC50: > 300 µM (not active)

## COC(=O)Cc1sc(-c2ccccn2)nc1-c1ccccc1
[5]
  IC50: 41.1 µM (active)

## CN(C)S(=O)(=O)c1ccc(NC(=O)N2CCN(c3ccccc3)CC2)cc1
[7]
  IC50: > 80 µM (inactive)

## CCN(CC)S(=O)(=O)c1ccc(C(=O)/C=C/c2ccc(-c3ccc([N+](=O)[O-])cc3)o2)cc1
[3]
  EC50: > 99 µM (inactive)
[4]
  EC50: > 99 µM (inactive)

## COc1cc(/C=N/Nc2nc(Nc3ccccc3)nc(N3CCOCC3)n2)ccc1OC(=O)c1ccco1
[11]
  EC50: 0.895 µM (active)
[12]
  EC50: 6.73 µM (active)
[7]
  IC50: > 80 µM (inactive)

## CC(C)c1nnc(NC(=O)CCC(=O)NC2CC2)s1
Cells [1]
  EC50: > 350 µM (not active)
[13]
  EC50: > 112 µM (not active)
[14]
  EC50: > 112 µM (not active)
Cells [2]
  EC50: > 350 µM (not active)

## COc1cc(/C=N/NC(=O)c2ccccc2)ccc1O
Large T antigen
  IC50: 10.5 µM (active)
[6]
  IC50: 29.9 µM (active)

## COCCCN=C(S)NN=C(S)Nc1ccc(F)cc1F
[5]
  IC50: 10.1 µM (active)

## O=[N+]([O-])c1ccc(N/N=C/c2ccccc2)c(F)c1
[15]
  CC50: > 50 µM (active)
[3]
  EC50: > 99 µM (inactive)
[4]
  EC50: 27.2 µM (inactive)

## CN1CCN(c2ccc(NC(=O)c3ccc([N+](=O)[O-])o3)cc2Cl)CC1
[8]
  AC50: 9.02 µM (active)

## COc1cc(/C=c2\sc3n(c2=O)CCCN=3)ccc1O
Large T antigen
  IC50: 16.2 µM (active)
[16]
  AC50: 4.19 µM (active)
[6]
  IC50: 15.6 µM (active)

## C[C@@H]1O[C@@H](OC2C(O)C(OCCc3ccc(O)c(O)c3)OC(CO)C2OC(=O)/C=C/c2ccc(O)c(O)c2)[C@H](O)[C@H](O)[C@H]1O (some centres undefined)
Large T antigen
  IC50: 3.26 µM (active)

## FC(F)(F)c1ccc(CSc2ccccn2)cc1
Cells [1]
  EC50: > 350 µM (not active)
Cells [2]
  EC50: 70 µM (active)

## COc1cccc(N2C(=O)C(Cl)=C(N3CCN(c4ccccc4)CC3)C2=O)c1
[17]
  IC50: > 50 µM (inconclusive)

## Cc1ccc(Sc2ccc(C=C3C(=O)N(C)C(=O)N(C)C3=O)o2)cc1
[9]
  EC50: > 300 µM (not active)
[10]
  EC50: 25.5 µM (inconclusive)
[16]
  AC50: 0.25 µM (active)
Cells [18]
  IC50: 21.4 µM (active)
Genome polyprotein
  IC50: 14.5 µM (active)

## Cc1nnc2c3ccccc3c(-c3ccccc3)nn12
[7]
  IC50: > 80 µM (inactive)
